Results published in patent publication US7718640B2, “Methods and pharmaceutical compositions for reliable achievement of acceptable serum testosterone levels” (Bayer-Schering Pharma AG, priority 2003, dated 2010).

Tests used:
[1] = Long-term efficacy and safety study of intramuscular TU 1000 mg in hypogonadal men (Example 2); type: in vivo; conditions: 4 TU doses of 1000 mg i.m. per year (12-week intervals), 4 ml castor oil:benzyl benzoate 1:1.7
Experimental: The therapeutic efficacy and safety of a formulation containing testosterone undecanoate 1000 mg in a vehicle of 4 ml of a mixture of castor oil and benzyl benzoate in a ratio of 1:1.7 by volume has been investigated in hypogonadal men. The formulation (4 mL, 1000 mg of testosterone undecanoate) was injected intramuscularly to the hypogonadal men according to the following scheme: • initial phase comprising 4 injections of the formulation with intervals of 6 weeks between the injections. • maintenance phase comprising injecting the formulation in intervals of 10 or 12 weeks between injections.
The present study relates to a one-arm study examining the efficacy and safety of long-term intramuscular injection of testosterone undecanoate for the treatment of symptoms of hypogonadism in men. The patients received 4 testosterone undecanoate injections of 1000 mg the first three times of injections with an interval of 6 weeks, the 4th injection and subsequent injections with 12-week intervals.

[2] = Pharmacokinetic profile: total serum testosterone after intramuscular TU in hypogonadal men (Example 3, FIG. 1); type: in vivo
Experimental: See Example 3 for the injection scheme. […] The filled lines show the continued injection of 1000-mg TU with an interval of 12 weeks between injections.
The pharmacokinetic profile of a formulation containing testosterone undecanoate (TU) 1000 mg in a vehicle of 4 ml of a mixture of castor oil and benzyl benzoate in a ratio of 1:1.7 by volume was tested in hypogonadal men (having testosterone levels in serum of less than 10 nmol/l). An initial phase of two first intramuscularly injections of 1000 mg TU with 6-weeks interval between the two injections, followed by a maintenance phase of subsequent 3 intramuscularly injections of 1000 mg TU separated by an interval of 10 weeks between each of the injections. Then 1000 mg of testosterone undecanoate (TU) was intramuscularly injected every 12 weeks. 5 treatment periods were provided with an interval of 12 weeks between each injection.

[3] = Comparison of initial phases with 6 versus 10 weeks between injections; serum testosterone (total) before each additional injection (Example 4); type: in vivo, men; conditions: for Mean testosterone level (total) in serum after 1st injection / Mean testosterone level (total) in serum after 2nd injection: 6 men
Experimental: The pharmacokinetic profile of a formulation containing testosterone undecanoate (TU)1000 mg in a vehicle of 4 ml of a mixture of castor oil and benzyl benzoate in a ratio of 1:1.7 by volume was tested using two different regimens in hypogonadal men.
In regimen A, an initial phase of two first intramuscularly injections of 1000 mg TU with mean of 9.2-weeks (64.4 days) interval between the two injections, followed by a maintenance phase of subsequent intramuscularly injections of 1000 mg TU separated by an interval of a mean of 10.2 weeks ([…]) after second injection.
In regimen B, an initial phase of two first intramuscularly injections of 1000 mg TU with mean of 6.1-weeks (42.5 days) interval between the first two injections, followed by a maintenance phase of subsequent intramuscularly injections of 1000 mg TU separated by an interval of mean of 10.1 weeks (70.5 days) after second injections.
The concentration of testosterone (total) was determined in serum before each additional injection of TU.

## 17β-hydroxyandrost-4-en-3-one undecanoate [TU]
[1]
  restoration of physiological serum T levels: sufficient to restore physiological serum T levels in all 36 patients over most of the measurement times
[2]; 12 weeks after injection of 1000 mg TU i.m., maintenance phase
  minimum testosterone levels (total levels) after 12 weeks: ≥ 10 nmol
[2]; 14 weeks, upon extrapolating the serum levels of testosterone, lowest acceptable concentration about 10 nmol
  minimum testosterone levels for a treatment period of 14 weeks: The same was shown to apply
[2]; first injection interval 6 weeks, subsequent injections at 10 or 12 week intervals
  serum testosterone levels throughout the entire period between injections: 10 to 35 nmol/L
[2]; hypogonadal men, 1000 mg TU i.m. in 4 ml castor oil:benzyl benzoate 1:1.7, 2 injections 6 weeks apart, then 3 at 10-week, then 12-week intervals
  maximal and minimal testosterone levels (total levels) in serum: within the physiological acceptable range
[2]; same scheme as Example 3, 1000 mg TU i.m.
  accumulation of testosterone over time: no accumulation of testosterone is seen over time
[3]; Regime A, mean 9.2 weeks after 1st injection of 1000 mg TU i.m.
  Mean testosterone level (total) in serum after 1st injection: 7.0 nmol/L
[3]; Regime A, mean 10.8 weeks after 2nd injection of 1000 mg TU i.m.
  Mean testosterone level (total) in serum after 2nd injection: 8.8 nmol/L
[3]; Regime B, mean 6.1 weeks after 1st injection of 1000 mg TU i.m.
  Mean testosterone level (total) in serum after 1st injection: 12.2 nmol/L
[3]; Regime B, mean 10.1 weeks after 2nd injection of 1000 mg TU i.m.
  Mean testosterone level (total) in serum after 2nd injection: 12.5 nmol/L
[3]; Regimen A: long-term intervals in both initial and maintenance phase
  sufficiency of testosterone levels over the entire period up to the following injection: do not result in the sufficient levels of testosterone above 10 nmol
[3]; Regimen B: interval in the initial phase decreased to 6 weeks
  testosterone levels over the period between injections: above 10 nmol/l
